Experimental data: patent publication US20180118721A1, “PYRIMIDINE DERIVATIVES” (Merck Patent GmbH, priority 2015, published 2018)
Where two headings read alike, the source gives them in different places.

Key:
[1] = Shake flask solubility measurement; assay type: physicochemical; conditions: aqueous buffer, thermodynamic from solid, phosphate buffer pH 7.4, 37° C.
Method: Compound solubility in aqueous solution is determined by a standard method in the art, the shake flask method. Solubility measurement is performed under equilibrium conditions at pH 7.4. Samples are prepared by dissolving an excess of the test compound in a phosphate buffer (made up of 3,954 g sodium hydrogenphosphate-monohydrate, 6,024 g sodium chloride, 950 ml ultrapure water and adjusted to pH 7.4 with 0.1 M NaOH or 0.1 M HCl). These samples are shaken at 37° C. with 450 rpm (shaker: TiMix control Bühler) for 24 h in total until equilibrium is reached. After 7 hours shaking, the pH value of the sample is controlled and adjusted, if necessary. It is also checked that the sample (test compound) is available in excess. Shortly before the end of 24 h, samples are checked again for pH and precipitate. At the end of 24 h and after separation of the solid by filtration, the concentration of the compound in the filtrate is determined by liquid chromatography using […] (LC-UV).
Sample preparation: Incubation hood: TH 15 Bühler; pH device 766 Calimatic Knick; pH electrode InLab 423 Mettler
Chromatography Conditions:
Column: Chromolith RP18e 100×3 mm
Wavelength range: 190-400 nm • select a suitable evaluation wavelength
Injection volume: Probe 5 μl and 15 μl; Standard 5 μl
Column stove temperature: 37° C.
Eluent A: water/formic acid (999:1; v/v)
Eluent B: acetonitrile/formic acid (999:1; v/v)

[2] = biological target: T1, purified human recombinant MTH1 (human MTH1, residues 42-197) (Homo sapiens, UniProt P36639); assay: MTH1 enzymatic assay (luminescence-based, PPiLight); assay type: biochemical
T1 construct: human MTH1, residues 42-197, Uniprot-ID: P36639, expressed in E. coli; made in house; host or cells: E. coli

[3] = Microsomal stability (intrinsic clearance), human; assay type: in vitro ADME; conditions: human liver microsomes, 0.5 mg/ml protein, Clint
From the text: (§1) A microsomal stability assay is used to measure in vitro clearance (Clint). The assay involves measuring the rate of disappearance of a compound due to its intrinsic attitude to be metabolized (“intrinsic” meaning that the disappearance is not affected by other properties like permeability, binding etc. that play a role when quantifying in vivo clearance). The microsomal stability (intrinsic clearance, Clint) and thus metabolic stability is generally given as μl/min/mg protein. It can be visualized as the volume of solution that 1 mg of microsomes is able to clear of the compound in one minute.
(§2) A Tecan Genesis workstation (RSP 150/8) was used for to perform the microsomal incubations. Analysis was carried out using a Waters ACQUITY UPLC system coupled to an ABSciex API3000 mass spectrometer. Data analysis was performed using Assay Explorer (Symyx).
(§3) Column: Acquity UPLC BEH C18, 2.1×50 mm, 1.7 μm (Waters) Mobile phases: A=0.1% formic acid in water; B=acetonitrile
(§4) Flow rate: 0.750 mL/min; Detection: ESI, MRM; Injection: 10 μL; Column temperature: 50° C.
(§5) • Potassium phosphate buffer: 0.05 M potassium phosphate buffer pH 7.4 containing 1 mM MgCl2 • NADPH (nicotinamide adenine dinucleotide phosphate): 22.5 mg NADPH-Na4 in 1.8 ml potassium phosphate buffer • Acetonitrile: 50 Vol % acetonitrile (1 volume acetonitrile, 1 volume water) • DMSO: 20 Vol % DMSO in water • Stock solution of 20 mg/ml human or mouse liver microsomes (protein)/ml in phosphate buffer • Stock solution of 10 mM compound in 100% DMSO
(§6) Dilution of test compounds was done in 2 steps starting from a 10 mM stock solution of the respective compound in 100% DMSO. First 4 μl stock solution was added to 196 μl of 20 Vol % DMSO. In a second step, 10 μl of the first dilution were added to 1590 μl potassium phosphate buffer to achieve a final concentration of 1.25 μM in the final compound dilution. Thus, the amount of organic solvent in the assay was kept to a minimum (<1%).
(§7) The human or mouse liver microsome (protein) solution to be used in the assay was prepared by mixing 750 μl stock solution (20 mg/ml) and 2250 μl potassium phosphate buffer to a final concentration of 5 mg/ml.
(§8) Incubation was carried out on a 96 deep well incubation plate. 160 μl per well of the final compound dilution were transferred onto the incubation plate. Four samples of each compound dilution were assayed. 20 μl/well liver microsome solution was added to each well and the samples were then preincubated for 5 min at 37° C. and 800 rpm agitation. Two reference compounds (verapamil and dextromethorphan) were used in parallel in every experiment and for each species (human or mouse microsomes) to ensure system performance and for comparison.
(§9) On a separate stop plate, 160 μl acetonitrile were added per well.
(§10) After preincubation, i.e. at time t1=0 minutes, 18 μl samples of incubated compound solution and were transferred and added per well (containing acetonitrile) on the stop plate to prevent a reaction (0 minutes control samples, 4 samples per compound). Equally, 18 μl samples of incubated reference compound solution were transferred and added per well (containing acetonitrile) on the stop plate at time t1=0 minutes and again after 30 minutes (t4), solubility and chemical stability of the compound were checked. […]

[4] = Microsomal stability (intrinsic clearance), mouse; assay type: in vitro ADME; conditions: mouse liver microsomes, 0.5 mg/ml protein, Clint
From the text: as §1, §2, §3, §4, §5, §6, §7, §8, §9, §10

[5] = biological target: T2, humanMTH1 (aminoacids 42 to 197) (Homo sapiens, UniProt P36639); assay: Binding affinities and kinetics on MTH1 surfaces by surface plasmon resonance (SPR); conditions: on MTH1, calculated on the basis of the KD values
T2 construct: humanMTH1 (aminoacids 42 to 197); His tag at the N-terminus; purchased Abnova ab99390; host or cells: E. coli
Method: The SPR experiments were performed using a Biacore4000 instrument. […] HumanMTH1 was immobilized on Biacore CM5 chips at 25° C. and a flow rate of 10 μL/min using amine coupling at pH 5.5 and in presence of 1 μM MSC2567771B-1 according to Biacore's standard protocol. MTH1 was applied at a concentration of 10 μg/mL and depending on the duration of the injection time immobilization levels between 500 and 2,000 RU were obtained. Sample compounds were applied in form of titration series with a doubling of concentration at each subsequent injection. In general, 10 concentrations were injected covering a dilution range of 500 fold. Before and after each of these titration series the binding capability of the surface was controlled by the injection of the positive control S-Crizotinib at a fixed concentration of 2 μM. Kinetic titration experiments were performed at 25° C. with a flow rate of 30 μL/min, a sample contact time of 90 sec and a dissociation time of 420 sec in running buffer (20 mM Tris-HCl (Tris(hydroxymethyl)-aminomethane HCl) pH 7.40, 150 mM NaCl, 5 mM MgCl2, 1 mM DTT (dithiothreitol), 0.1 mM EGTA (ethylene glycol tetraacetic acid), 0.05% Tween 20) containing 2% DMSO (dimethyl sulfoxide). Buffer injections identical to the sample injections were executed at the beginning of the successive series for the purpose of double referencing. Solvent correction cycles (eight correction points, 1.4%-2.8% DMSO) were run at the same intervals. For surface conditioning ten start-up cycles (buffer injections) were run. Data points were collected at a sample rate of 10 Hz.
Data sets were processed and analyzed using the software Biacore4000 Evaluation, version 1.0. Solvent corrected and double-referenced association and dissociation phase data were fitted to a simple 1:1 interaction model with mass transport limitations.
Measured values are indicated as KD IC50 in the Table below.

[6] = 6 μM 8-oxo-dGTP, Table 1, grouped

Q: Which solubility at 24 h [1] does the source give for `NC(=O)C1CCN(c2cc(NC3CC3)nc(N)n2)C1` (stereo not drawn) [Example 5, 1-(2-amino-6-cyclopropylamino-pyrimidin-4-yl)-pyrrolidine-3-carboxylic acid amide-formate] here?
A: > 1000 µg/mL

Q: What about the IC50 [2, 6] of the same compound?
A: 1 to 100 nM

Q: What about the IC50 ([2]; Table 2) of the same compound?
A: 7 nM

Q: What about the Microsomal stability human [3] of the same compound?
A: <10 μl/min/mg prot.

Q: What about the Microsomal stability mouse [4] of the same compound?
A: 13 μl/min/mg prot.

Q: Which results are given for `CNc1cc(N2CCC[C@@H]2CO)nc(N)n1` [Example 8, [(R)-1-(2-amino-6-methylamino-pyrimidin-4-yl)-pyrrolidin-2-yl]-methanol-formate]?
A: solubility at 24 h [1]: > 1000 µg/mL; IC50 [2, 6]: 1 to 100 nM; IC50 ([2]; Table 2): 2 nM; Microsomal stability human [3]: <10 μl/min/mg prot.; Microsomal stability mouse [4]: <10 μl/min/mg prot.

Q: For `CNc1cc(N2CCC(O)C2)nc(N)n1` (stereo not drawn) [Example 7, 1-(2-amino-6-methylamino-pyrimidin-4-yl)-pyrrolidin-3-ol-formate], which solubility at 24 h [1] is on record?
A: > 1000 µg/mL

Q: What about the IC50 [2, 6] of the same compound?
A: 1 to 100 nM

Q: And the IC50 ([2]; Table 2)?
A: 1.3 nM

Q: What about the Microsomal stability human [3] of the same compound?
A: <10 μl/min/mg prot.

Q: What about the Microsomal stability mouse [4] of the same compound?
A: <10 μl/min/mg prot.

Q: For `CNc1cc(N2CCC(F)(F)C2)nc(N)n1` [Example 3, 6-(3,3-difluoro-pyrrolidin-1-yl)-N^4-methyl-pyrimidine-2,4-diamine], which solubility at 24 h [1] is on record?
A: > 1000 µg/mL

Q: And the IC50 [2, 6]?
A: < 1 nM

Q: And the IC50 ([2]; Table 2)?
A: < 1 nM

Q: And the Microsomal stability human [3]?
A: <10 μl/min/mg prot.

Q: And the Microsomal stability mouse [4]?
A: 43 μl/min/mg prot.

Q: Which IC50 [2, 6] does the source give for `CNc1cc(N2CCC(C(=O)NCCc3ccc(S(=O)(=O)F)cc3)CC2)nc(N)n1` [Example 120, 4-(2-{[1-(2-Amino-6-methylamino-pyrimidin-4-yl)-piperidine-4-carbonyl]-amino}-ethyl)-benzenesulfonyl fluoride] here?
A: < 1 nM

Q: And the residence time [5]?
A: ≥ 10 min

Q: For `CNc1cc(N2CCCCC2Cc2ccc(OC)cc2)nc(N)n1` (stereo not drawn) [Example 95, 6-[2-(4-Methoxy-benzyl)-piperidin-1-yl]-N4-methyl-pyrimidine-2,4-diamine], which IC50 [2, 6] is on record?
A: < 1 nM

Q: And the residence time ([5]; read-out: Residence time)?
A: ≥ 10 min
